Data on 18 compounds can be found in patent EP1043336A2, “Stereospecific antibodies for imidazolinone herbicides” (The Regents of the University of California, priority 1999, dated 2000).

Assay [1] has as its system MAb 3A2. Kind of assay: Indirect competition EIA, cross-reactivity with common agrochemicals (wells coated with hapten 17-OA). In kind it is binding, mouse. Conditions: for inhibition: 5-10 ppm. How it is done: EIAs were done essentially as described by Karu et al (1994). For indirect EIAs, hapten-protein conjugates were adsorbed to wells of Immulon 2™ 96-well plates (Dynatech) in 0.1 mL of coating buffer (0.015 M Na2CO3 ― 0.035 M NaHCO3 ―0.003 M NaN3, pH 9.6). PBS-Tween containing 0.05% gelatin, 0.45 micron-filtered, was used as the diluent for antibodies and antibody-analyte mixtures, and as a blocking solution to prevent adventitious binding. The detecting antibody for the indirect EIAs was alkaline phosphatase conjugated goat anti-mouse IgG and IgM The substrate solution for color development was p-nitrophenyl phosphate 1 mg/mL, in 10% (w/v) diethanolamine-HCl, pH 9.8 ― 0.5 mM MgCl2 ― 3 mM NaN3. • 1. Indirect competition EIA. Indirect competition EIA (immobilized hapten conjugate) was used to evaluate the responses of mice, screen the MAbs, and quantify imidazolinone analytes. Optimal amounts of imidazolinone-BSA or -OVA conjugate for plate coating and dilutions for the hybridoma culture supernate or antiserum were determined by checkerboard assay. To perform the assay, wells were coated overnight at 4°C with a limiting amount of conjugate in 0.1 mL of coating buffer. Imidazolinone standards (0.5 to 5000 ppb) or unknowns were mixed with a limiting amount of antiserum or hybridoma culture fluid in the diluent and incubated overnight at 4°C in tightly sealed polypropylene tubes. The coated wells were washed and blocked with 0.2 mL of 0.05% gelatin in PBS-Tween for 30 minutes at room temperature. After another wash, aliquots (0.1 mL) of the antibody-analyte mixture were added to wells, and the remainder of the assay was performed as previously described (Karu et al., 1994). • 2. Direct competition EIA. Direct EIAs were performed by capturing the MAb on microwells and allowing the analyte to compete with a HRP-conjugated hapten for binding. Bound HRP-conjugate was then detected with a commercial HRP substrate. The sensitivity of this assay was enhanced by use of a commercial enzymatic signal amplification kit (GIBCO-BRL). Wells were coated with 200 or 500 ng of affinity-purified goat anti-mouse IgG or anti-mouse IgG Fc in the coating buffer at 4°C overnight. The next day, the wells were washed and blocked with PBS-Tween-gelatin for 30 minutes at room temperature, and then incubated for 1.5 hours at room temperature with hybridoma culture supernate. The plates were washed with PBS-Tween, and 0.1 mL of diluent containing the analyte and a limiting amount of biotinylated imidazolinone was added for 1.5 h at room temperature. The wells were washed three times with PBS-Tween, and Extravidin-alkaline phosphatase conjugate (Sigma) was then added for 30 minutes at room temperature. The plates were washed again with TBS (0.05 M Tris-HCl, pH 7.5,― 0.15 M NaCl) to remove remaining inorganic phosphate, which can inhibit the GIBCO-BRL EIA Amplification system. Substrate solution for the amplification step (0.05 mL) was added for 15 minutes at room temperature, followed by 0.05 mL of the enzymatic amplifying solution and chromogen. Color development at 492 nm was recorded. • 3. EIA Data Analysis. Color development was monitored on a Multiskan EIA reader (Flow Laboratories) interfaced with a Macintosh computer, and the rates of the reaction were calculated by linear regression. Competition EIA dose- response curves were fitted with a 4-parameter logistic equation (Karu et al., 1994). […]

Assay [2] deals with panel of monoclonal antibodies (MAbs). Kind of assay: Detection of imidazolinones by the panel of MAbs (EIA). The class given is binding, mouse. The method, then: EIAs were done essentially as described by Karu et al (1994). For indirect EIAs, hapten-protein conjugates were adsorbed to wells of Immulon 2™ 96-well plates (Dynatech) in 0.1 mL of coating buffer (0.015 M Na2CO3 ― 0.035 M NaHCO3 ―0.003 M NaN3, pH 9.6). PBS-Tween containing 0.05% gelatin, 0.45 micron-filtered, was used as the diluent for antibodies and antibody-analyte mixtures, and as a blocking solution to prevent adventitious binding. The detecting antibody for the indirect EIAs was alkaline phosphatase conjugated goat anti-mouse IgG and IgM The substrate solution for color development was p-nitrophenyl phosphate 1 mg/mL, in 10% (w/v) diethanolamine-HCl, pH 9.8 ― 0.5 mM MgCl2 ― 3 mM NaN3. • 1. Indirect competition EIA. Indirect competition EIA (immobilized hapten conjugate) was used to evaluate the responses of mice, screen the MAbs, and quantify imidazolinone analytes. Optimal amounts of imidazolinone-BSA or -OVA conjugate for plate coating and dilutions for the hybridoma culture supernate or antiserum were determined by checkerboard assay. To perform the assay, wells were coated overnight at 4°C with a limiting amount of conjugate in 0.1 mL of coating buffer. Imidazolinone standards (0.5 to 5000 ppb) or unknowns were mixed with a limiting amount of antiserum or hybridoma culture fluid in the diluent and incubated overnight at 4°C in tightly sealed polypropylene tubes. The coated wells were washed and blocked with 0.2 mL of 0.05% gelatin in PBS-Tween for 30 minutes at room temperature. After another wash, aliquots (0.1 mL) of the antibody-analyte mixture were added to wells, and the remainder of the assay was performed as previously described (Karu et al., 1994). • 2. Direct competition EIA. Direct EIAs were performed by capturing the MAb on microwells and allowing the analyte to compete with a HRP-conjugated hapten for binding. Bound HRP-conjugate was then detected with a commercial HRP substrate. The sensitivity of this assay was enhanced by use of a commercial enzymatic signal amplification kit (GIBCO-BRL). Wells were coated with 200 or 500 ng of affinity-purified goat anti-mouse IgG or anti-mouse IgG Fc in the coating buffer at 4°C overnight. The next day, the wells were washed and blocked with PBS-Tween-gelatin for 30 minutes at room temperature, and then incubated for 1.5 hours at room temperature with hybridoma culture supernate. The plates were washed with PBS-Tween, and 0.1 mL of diluent containing the analyte and a limiting amount of biotinylated imidazolinone was added for 1.5 h at room temperature. The wells were washed three times with PBS-Tween, and Extravidin-alkaline phosphatase conjugate (Sigma) was then added for 30 minutes at room temperature. The plates were washed again with TBS (0.05 M Tris-HCl, pH 7.5,― 0.15 M NaCl) to remove remaining inorganic phosphate, which can inhibit the GIBCO-BRL EIA Amplification system. Substrate solution for the amplification step (0.05 mL) was added for 15 minutes at room temperature, followed by 0.05 mL of the enzymatic amplifying solution and chromogen. Color development at 492 nm was recorded. • 3. EIA Data Analysis. Color development was monitored on a Multiskan EIA reader (Flow Laboratories) interfaced with a Macintosh computer, and the rates of the reaction were calculated by linear regression. Competition EIA dose- response curves were fitted with a 4-parameter logistic equation (Karu et al., 1994).

Assay [3] has as its system scFv p3A5.1c7 (scFv 3A5, SEQ.ID NO. 3). Kind of assay: Indirect competition EIA with scFv (16-BSA coating), compared with MAb 3A5.1. In kind it is binding, mouse. Conditions: scFv on 16-BSA versus MAb 3A5.1.
For assay [4] the test system is unchanged. Kind of assay: Relative affinity of MAb and affinity-purified scFv by indirect EIA with equimolar protein. The class given is binding, mouse. Conditions: indirect EIA on 16-BSA, scFv versus MAb 3A5. The method, then:
The relative affinities of the MAbs and affinity-purified scFv were determined by indirect EIA using equimolar amounts of protein, essentially as described by Graham, B. M., et al. 1995. Cloning, expression, and characterization of a single-chain antibody fragment to the herbicide paraquat. J. Chem. Tech. Biotechnol. 63: 279-289. The results are illustrated in graphical form in Figures 15A (16-BSA) and 15B (17-OA), with the MAb represented by the solid line and the scFv represented by the broken line in each plot.

The subject of assay [5] is AHAS isozymes, designated I and II. Conditions: isozymes from Black Mexican Sweet corn; cited from earlier work.

Turning to `COC(=O)Nc1cccc(OC(=O)Nc2cccc(C)c2)c1` [phenmedipham, 3-methoxycarbonylaminophenyl-N(3'-methylphenyl)carbamate], the cross-reactivity entry in assay [1] (up to 10 ppm) was “No cross-reactivity”. Consider `CC(C)C1(C)N=C(c2nc3ccccc3cc2C(=O)O)NC1=O` (stereo not shown) [imazaquin, 2-(4-isopropyl-4-methyl-5-oxo-2-imidazolin-2-yl)-3-quinoline carboxylic acid], for which the detection range in assay [2] is 3 to 30 ng/mL. Besides, the “I50 with scFv relative to I50 with the MAb (higher = less sensitive)” value in assay [3] is reported as “about two-fold”. For the compound `CCC/C(=N\OCC)C1=C(O)CC(CC(C)SCC)CC1=O` (stereo not shown) [sethoxydim], the cross-reactivity entry in assay [1] (up to 10 ppm) was “No cross-reactivity”. For “a mixture of methyl 6-(4-isopropyl-4-methyl-5-oxo-2-imidazolin-2-yl) m-toluate and methyl 2-(4-isopropyl-4-methyl-5-oxo-2-imidazolin-2-yl) p-toluate [imazamethabenz-methyl]”, the detection range in assay [2] is 300-500 ppb.

`CCSC(=O)N1CCCCCC1` [molinate, S-ethyl-hexahydro-1-H-azepine-1-carbothioate]: the cross-reactivity entry in assay [1] (up to 10 ppm) is given as “No cross-reactivity”.

Consider `CCC(CC)Nc1c([N+](=O)[O-])cc(C)c(C)c1[N+](=O)[O-]` [pendimethalin, N-(1-ethylpropyl)-3,4-dimethyl-2,6-dinitrobenzenamine], for which the cross-reactivity result in assay [1] (up to 10 ppm) is “No cross-reactivity”. With `CCOc1cc(Oc2ccc(C(F)(F)F)cc2Cl)ccc1[N+](=O)[O-]` [oxyfluorfen, 2-chloro-1-(3-ethoxy-4-nitrophenoxy)-4-(trifluoromethyl) benzene], the cross-reactivity result in assay [1] (up to 10 ppm) was “No cross-reactivity”. On to `CCOC(=O)c1ccccc1S(=O)(=O)NC(=O)Nc1nc(Cl)cc(OC)n1` [chlorimuron ethyl, ethyl 2-[[[[(4-chloro-6-methoxypyrimidin 2-yl)amino]carbonyl]amino]sulfonyl]benzoate], for which, in assay [1], the inhibition was 10-15%. The cross-reactivity result in assay [1] (up to 5 ppm) is given as “did not cross-react”. As for `Cc1cnc(C2=NC(C)(C(C)C)C(=O)N2)c(C(=O)O)c1` (stereo not shown) [imazapic, 5-methyl-2-(4-isopropyl-4-methyl-5-oxo-2-imidazolin-2-yl) nicotinic acid], the detection range in assay [2] was 3 to 30 ng/mL. As to `CCc1cccc(CC)c1N(COC)C(=O)CCl` [alachlor, 2-chloro-2'-6'-diethyl-N-(methoxymethyl)-acetanilide], in assay [1] (up to 10 ppm), the cross-reactivity entry is recorded as “No cross-reactivity”.

Take `CC(C)C1(C)N=C(c2ncc(C=CC(=O)O)cc2C(=O)O)NC1=O` (stereo not shown) [hapten 16, imazapyr-5-propenoic acid]: the “affinity of the scFv relative to that of the MAb (fold poorer)” value in assay [4] is recorded as “about 1,000 fold”. Turning to `CC(C)N.O=C(O)CNCP(=O)(O)O` [glyphosate, N-(phosphono-methyl) glycine isopropylamine salt], in assay [1] (up to 10 ppm), the cross-reactivity entry was “No cross-reactivity”. As for `COc1nc(C)nc(NC(=O)NS(=O)(=O)c2ccccc2Cl)n1` [chlorsulfuron, 2-chloro-N[(4-methoxy-6-methyl-1,3,5 triazin-2-yl)aminocarbonyl]benzenesulfonamide], in assay [1], the inhibition is given as 10-15%. In assay [1] (up to 5 ppm), the cross-reactivity entry is “did not cross-react”. On to `CCCN(CCC)C(=O)SCC` [EPTC, S-ethyl dipropylthiocarbamate], for which, in assay [1] (up to 10 ppm), the cross-reactivity entry is on record as “No cross-reactivity”. `CC(C)C1(C)N=C(c2ncccc2C(=O)O)NC1=O` (stereo not shown) [imazapyr, 2-(4-isopropyl-4-methyl-5-oxo-2-imidazolin-2-yl) nicotinic acid]: in assay [2], the detection range is given as 300-500 ppb. Further, the “sensitivity of AHAS II vs AHAS I to inhibition” value in assay [5] is listed as “significantly more sensitive”. Consider `CCc1cccc(C)c1N(C(=O)CCl)C(C)COC` (stereo not shown) [metolachlor, 2-chloro-N-(2-ethyl-6-methylphenyl)-N-(2-methoxy-1-methylethyl) acetamide], for which the cross-reactivity result in assay [1] (up to 10 ppm) is on record as “No cross-reactivity”.

As for `CCNc1nc(Cl)nc(NC(C)C)n1` [atrazine, Atrazine], the cross-reactivity entry in assay [1] (up to 10 ppm) is listed as “No cross-reactivity”. Turning to `C[n+]1ccc(-c2cc[n+](C)cc2)cc1.[Cl-].[Cl-]` [paraquat, 1,1'-dimethyl-4,4'-bipyridinium dichloride], in assay [1] (up to 10 ppm), the cross-reactivity entry is “No cross-reactivity”.
